Read-outs that look alike come from different tables or passages of the source.
What was measured:
[1] = system: Leishmania amazonensis promastigotes expressing beta-lactamase; experiment: microbe, parasite or virus in culture; format: cell-based; details: Leishmania amazonensis, read-out: IC50 L. amaz.
[2] = system: rat skeletal muscle cell line, L6; experiment: cells; format: cell-based; details: Rattus norvegicus; Table 1; read-out: IC50 Toxicity (L6)
[3] = system: Cryptococcus neoformans (Cn); experiment: CLSI micro-dilution inhibition / MIC, Cryptococcus neoformans; format: cell-based; details: running text b175, read-out: MIC against Cryptococcus neoformans
Procedure: C. neoformans (strain 1199s) was prepared following CLSI guidelines for the organism (CLSI, Reference Method for Broth Dilution Antifungal Susceptibility Testing of Yeasts, Approved Standard-Third. Edition, Clinical Laboratory Standards Institute, Wayne, Pa., 2008).
The A27-M2 CLSI standard micro-dilution method was used to screen an aurone library (MTSU Department of Chemistry) for inhibition of Cryptococcus neoformans (Cn). Each aurone was screened in triplicate. […] Toxicity assays were conducted on human THP1 macrophages and L6 rat fibroblasts.
The inhibition of Cn strains and C. gattii strains by Aurone 9051 (also referred to as “Aurone X”) was characterized in different medias (including RPMI 1640 (Standard), RPMI 1640+MOPS, Asparagine media, minimal media, or yeast extract peptone dextrose (YPD) media), against other serotypes and strains, and at different cell concentrations. Synergy of the compounds with current drugs was characterized, and a growth curve experiment was conducted.

[4] = system: Trypanosoma cruzi Tulahuen cells expressing beta-galactosidase; experiment: T. cruzi intracellular assay (beta-galactosidase, L6 host cells); details: Trypanosoma cruzi, TULAHUEN, intracellular assay
[5] = system: PMA-differentiated THP-1 cells; experiment: Alamar Blue cell viability assay, THP-1; format: cell-based, human
Procedure: THP-1 cells were maintained in RPMI 1640 medium supplemented with 10% heat-inactivated FBS and 1% penicillin/streptomycin (complete culture medium) at 37° C. with 5% CO2 supplemented. Cell concentrations were adjusted to desired concentrations for each experiment by centrifugation at 500×g for 5 min and resuspended in complete culture medium with 100 nM of PMA. Cell concentration was adjusted to 5×10^5 cells/ml for all assays with the exception of 2.5×10^5 cells/ml were used for NF-κB nuclear translocation assay. Cells were seeded onto 96-, 24-, or 12-well plates and incubated for 48 to 72 h to allow for differentiation. Cells were washed with serum-free RPMI 1640 medium before each experiment to remove undifferentiated cells. […] Cells were seeded into tissue culture plates at 10% confluence and grown to 80% confluence within 72 h. For live cell microscopy, 1×10^5 cells/ml were seeded into 35 mm glass-bottom (MatTek) dishes 24 h prior to imaging. For luciferase assays, 1.2×10^5 cells/well were seeded into 24-well tissue culture-treated plates.
Following treatment, the relative cell viability was measured by Alamar Blue assay. For Alamar Blue assays, supernatants were replaced with culture medium containing 1× Alamar Blue reagent and incubated overnight. Cell viability was assessed by measuring relative fluorescent units (RFU) on the SpectraMax M2e microplate reader (Molecular Devices Inc., Sunnyvale, Calif., USA) at Ex 560 nm and Em 590 nm. The results were expressed as a percentage relative to LPS alone control cells. The effects of the vehicle control, DMSO, on cell viability were also assessed.
(§1) Dexamethasone is a synthetic glucocorticoid that suppresses LPS-induced pro-inflammatory cytokine expression and was used as a control (Abraham, Lawrence et al. 2006). Supernatants were collected for human cytokine ELISAs and the manufacturer's protocol was followed to assess the cytokine response. Cells remaining after the supernatant collection were tested for relative viability by Alamar Blue cytotoxicity assay as previously described.

TNFα = experiment: Cytokine response by ELISA, TNFα; format: cell-based, human
Procedure: as §1

[6] = system: p65-EGFP / TNFα promoter mCherry reporter; experiment: Live cell imaging of RAW 264.7 dual reporter cells (p65-EGFP, TNFα promoter mCherry); format: cell-based, murine; details: 50 μM pre-treatment
Procedure: Cells were maintained at 37° C. with 5% CO2 in a humidified atmosphere during imaging. EGFP and mCherry fluorescence were imaged using FITC and Cy3 filters, respectively. Nikon Elements Software (Nikon. USA) was used for microscope control and image capture. Post-acquisition, images were analyzed using Fiji (Schindelin, Arganda-Carreras et al. 2012). Images were background subtracted and cytoplasmic:nuclear p65-EGFP and whole cell mCherry fluorescence were quantified for individual cells at each time point.

Row | SMILES | IC50 [1] | IC50 [2] | MIC [3] | IC50 ([4]; read-out: IC50 T. cruzi, Table 1, mean of 2(+) trials (^c one trial)) | IC50 ([4]; read-out: IC50 T. cruzi, Table 2, mean of 2(+) independent trials) | THP-1 cell viability (Alamar Blue) ([5]; 100 μM with LPS) | THP-1 cell viability (Alamar Blue) ([5]; 20, 40, 80 μM with LPS for 4 h) | Average % Viability (4 h with LPS) ([5]; THP-1 cells, 20 μM, 4 h with LPS, mean ± SD) | inhibition at 20 µM (TNFα; Homo sapiens, LPS-stimulated THP-1 cells, 20 μM, mean ± SD, read-out: Average % TNF-α Inhibition) | suppression of TNFα expression (TNFα; LPS-stimulated THP-1, ELISA, FIG. 9A, concentration not printed with the value (20-80 μM tested)) | expression of mCherry (TNFα promoter reporter) [6] | nuclear translocation of p65-EGFP post-LPS [6]
1 | COc1ccc(/C=C2\Oc3c(ccc(O)c3O)C2=O)cc1O [Aurone 1009, (Z)-6,7-dihydroxy-2-(3-hydroxy-4-methoxybenzylidene)benzofuran-3(2H)-one] | 9.63 µM | 45 µM | 30 µM | > 50 µM | > 50 µM |  |  |  |  |  |  | 
2 | O=C1/C(=C/c2ccc(CO)o2)Oc2ccccc21 [aurone 1] |  |  |  |  |  | less than 90% | no effect on cell viability | 96.0 ± 0.6% | 25.3 ± 6.1% | 93.8% | smaller fold-change in the expression of mCherry | diminished

Source: patent publication US20200399238A1, “THERAPEUTIC AURONES” (MIDDLE TENNESSEE STATE UNIVERSITY, priority 2016, published 2020)
